In one assay the test system is H274Y virus. In kind it is cell-based. Particulars: read-out: IC50 against influenza virus replication (plaque formation), H274Y.
The test system of assay [1] is NAI drug-resistant mutant stain H274Y-PR8 virus. More on the design: species or system BALB/c mice. Particulars: mouse, in vivo.
For assay [2], the system named is H274Y mutant influenza virus. The note with it: background statement; cited from earlier work.

Several values for one entry are separate records, joined by “and”; a condition that tells them apart may be missing. Equal entries are not always repeated. Entries after “also recorded” stand apart in the source; their conditions may differ.

In general, IC50 refers to the concentration at which inhibition is half-maximal. Take `CCCCS(=O)(=O)N[C@@H]1CCCN([C@@H]2C=C(C(=O)O)C[C@H](NC(=N)N)[C@H]2NC(C)=O)C1` [(3R,4R,5S)-4-acetamido-5-guanidino-3-((3R)-3-n-butylsulfonamidopiperidin)-1-cyclohexene-1-carboxylic acid]: in the assay on H274Y virus, the IC50 was 130 nM and 131 nM. In assay [1], the body weight result was “basically the same as that of the uninfected control mice; also recorded: decreased significantly”, the disease symptoms result is given as “no symptoms of any diseases” and the mortality rate was determined as 20%.
Take `CCOC(=O)C1=C[C@@H](OC(CC)CC)[C@H](NC(C)=O)[C@@H](N)C1.O=P(O)(O)O` [Oseltamivir phosphate, ethyl (3R, 4R, 5S)-4-acetamido-5-amino-3-(1-ethylpropoxy)-1-cyclohexene-1-carboxylate phosphate]: the IC50 with H274Y virus amounted to 15000 nM. In addition, in assay [1], the disease symptoms result is listed as “obvious disease symptoms” and the mortality rate is given as 40%. In addition, the “decrease of activity due to the resistance caused by the mutation of H274Y” value in assay [2] was “more than 300 times”.
On to Peramivir, for which the IC50 in the assay on H274Y virus was 643 nM. Also, in assay [1], the body weight result is “significant weight decline”, the body weight decrease result was “about 6%”, the disease symptoms result is “mild disease symptoms; also recorded: obvious disease symbols” and the mortality rate is recorded as 60%.
